Data reported in patent publication US20240174696A1, “2,8-DIAZASPIRO[4.5]DECANE COMPOUNDS” (Genentech, Inc., priority 2021, published 2024).
Counter-ions that a name gives are not always drawn.

Key:
[1] = tested on: TAZ nuclear translocation in SW1990 cells; experiment: TAZ Nuclear Translocation Assay; format: cell-based; conditions: Homo sapiens, 4 hours
Description: The SW1990 cells (ATCC, CRL2172) were seeded at 5000 cells/well by adding 30 μL/well of cells in RPMI1640, 10% FBS, 2 mM glutamine culture media to a 384-well plate (Greiner 781091). The cells were incubated overnight at 37° C. Next day, test compounds were directly added to the cells using the Echo Liquid Handler (Labcyte), incubate at 37° C. for 4 hours. The cells were fixed with 4% paraformaldehyde and incubate for 20 minutes at room temperature. After washing three times with 100 μL PBS, 0.5% Triton X-100 was added to permeabilize the cells, incubate at room temperature for 5 minutes, following by washing the cells three times with PBS. 3% BSA was added to the cells, incubate for one hour at room temperature, following by washing three times with PBS. 50 μL of 1:750 diluted rabbit Anti-TAZ (Cell signaling D316D) in 3% BSA was added to the cells, incubate at 4° C. overnight. Next day, after washing the cells three times with PBS, 50 μL of 1:1250 diluted donkey anti-Rabbit, Alexa Fluor 488 (Invitrogen A21206) and 1:6250 diluted Hoechst 33342 (Molecular Probes H-21492) in 3% BSA was added to the cells, incubate at room temperature for one hour. The cells were washed three times with PBS, then image with the CellInsight CX7 High-Content Imager. The ratio of nuclear mean fluorescence intensity and cytoplasmic ring region mean fluorescence intensity was calculated. The % inhibition was normalized using DMSO as 0% inhibition and an inhibitor control as 100% inhibition. The EC50 values were calculated by fitting the % inhibition with a nonlinear four-parameter logistical equation.

[2] = target: Human LATS2 catalytic domain (Homo sapiens (Human), UniProt Q9NRM7); experiment: LATS2 High ATP HTRF Assay; format: biochemical; conditions: no asterisk: LATS2 High ATP HTRF Assay, 5000 μM ATP, 0.05 nM LATS2
Chain of Human LATS2 catalytic domain (Q9NRM7 553-1088): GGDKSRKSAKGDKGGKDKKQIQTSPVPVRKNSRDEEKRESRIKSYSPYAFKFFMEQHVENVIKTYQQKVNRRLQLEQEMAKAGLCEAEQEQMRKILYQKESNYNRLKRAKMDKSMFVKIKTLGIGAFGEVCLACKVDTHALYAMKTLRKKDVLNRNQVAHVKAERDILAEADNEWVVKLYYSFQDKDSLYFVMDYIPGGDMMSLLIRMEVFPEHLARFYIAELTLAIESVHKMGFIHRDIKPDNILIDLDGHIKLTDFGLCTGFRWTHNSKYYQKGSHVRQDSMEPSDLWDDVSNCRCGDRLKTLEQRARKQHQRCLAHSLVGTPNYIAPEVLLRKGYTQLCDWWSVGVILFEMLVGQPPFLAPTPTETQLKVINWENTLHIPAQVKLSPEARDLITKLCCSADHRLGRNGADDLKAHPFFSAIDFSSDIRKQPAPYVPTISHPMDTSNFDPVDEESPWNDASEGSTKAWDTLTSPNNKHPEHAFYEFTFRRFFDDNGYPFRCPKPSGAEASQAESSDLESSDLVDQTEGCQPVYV
Chain of Human LATS2 catalytic domain (Q7L9L4 whole entry partner, the tested form may be a part): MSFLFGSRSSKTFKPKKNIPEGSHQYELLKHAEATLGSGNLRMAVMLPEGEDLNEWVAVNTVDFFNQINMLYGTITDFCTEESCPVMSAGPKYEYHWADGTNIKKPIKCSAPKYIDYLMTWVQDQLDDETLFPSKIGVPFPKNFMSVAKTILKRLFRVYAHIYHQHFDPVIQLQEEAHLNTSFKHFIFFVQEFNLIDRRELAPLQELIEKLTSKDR
Description: Human LATS2 catalytic domain which contains the amino acids G553-V1088 (accession NP_055387) was purified in-house. The LATS2 catalytic domain was co-purified with Mob1b (accession NP_775739). The LATS2 biochemical HTRF assay was performed using the HTRF KinEASE-STK S1 Kit (Cisbio, Cat #62ST1PEC), following the protocol from the manufacturer. Compounds were dispensed by the Echo Liquid Handler (Labcyte) into a white 384-well plate (PerkinElmer, Cat #6008289). 3 uL of 2×LATS2 enzyme solution was added to the compounds, following by a 10 minute incubation at room temperature. Then, 2×ATP and STK S1 peptide solution was added to initiate the one hour enzyme reaction at room temperature. The final condition of the reaction was 0.2 nM LATS2, 50 μM ATP, 0.5 μM STK S1 peptide in 50 mM HEPES pH7.2, 10 mM MgCl2, 0.1% BGG, 0.005% Brij-35, 1 mM DTT. The reaction was quenched by adding 6 uL of the detection mixture which contained Streptavidin XL665 and STK Antibody-Cryptate (Cisbio), incubate for 1 hour at room temperature. The HTRF (665 nm/620 nm) signal was read on the Envision plater reader (PerkinElmer). The IC50 values were determined by fitting the % inhibition with a nonlinear four-parameter logistical equation. The Ki values were calculated using the Cheng-Prusoff equation for a competitive inhibitor, IC50═Ki (1+S/Km)+M [E] with ATP Km for LATS2=105 μM.
The LATS2 high ATP HTRF assay was performed using the same protocol as the Standard LATS2 HTRF assay. The final condition of the reaction was 0.05 nM LATS2, 5000 μM ATP, 0.5 μM STK S1 peptide in 50 mM HEPES pH7.2, 10 mM MgCl2, 0.1% BGG, 0.005% Brij-35, 1 mM DTT and the 2 hours enzyme reaction at room temperature.

Compound | EC50 [1] | Ki [2]
CN1CC2(CCN(c3nc(-c4ccncc4)nc4cnccc34)CC2)CC1CO (racemic) [Example 212, (2-methyl-8-(2-(pyridin-4-yl)pyrido[3,4-d]pyrimidin-4-yl)-2,8-diazaspiro[4.5]decan-3-yl)methanol] | 2500 nM | 0.41 nM
COCC1CC2(CCN(c3nc(-c4ccncc4)nc4cnccc34)CC2)CN1C (racemic) [Example 217, 4-(3-(methoxymethyl)-2-methyl-2,8-diazaspiro[4.5]decan-8-yl)-2-(pyridin-4-yl)pyrido[3,4-d]pyrimidine] | 780 nM | 0.35 nM
c1cc(-c2nc(N3CCC4(CC3)CC3COCCN3C4)c3ccncc3n2)ccn1 (racemic) [Example 218, 1-(2-(pyridin-4-yl)pyrido[3,4-d]pyrimidin-4-yl)hexahydrospiro[piperidine-4,7′-pyrrolo[2,1-c][1,4]oxazine]] | 6800 nM | 4.3 nM
Cc1n[nH]cc1-c1nc(N2CCC3(CCN(C[C@@H](C)O)C3)CC2)c2ccncc2n1 (single isomer, unassigned) [Compound 145] | 940 nM | 0.039 nM
O[C@@H]1COC[C@H]1N1CCC2(CCN(c3nc(-c4ccncc4)nc4cnccc34)CC2)C1 (single isomer, unassigned) [Compound 176] | 1790 nM | 0.93 nM
O[C@H]1COC[C@@H]1N1CCC2(CCN(c3nc(-c4ccncc4)nc4cnccc34)CC2)C1 (single isomer, unassigned) [Compound 177] | 2500 nM | 0.39 nM
O[C@@H]1CC[C@@H]1N1CCC2(CCN(c3nc(-c4ccncc4)nc4cnccc34)CC2)C1 (single isomer, unassigned) [Compound 180] | 1300 nM | 1.38 nM
O[C@H]1CC[C@H]1N1CCC2(CCN(c3nc(-c4ccncc4)nc4cnccc34)CC2)C1 (single isomer, unassigned) [Compound 181] | 1900 nM | 1.87 nM

The next compounds have a lower EC50 [1] than those just listed; values first:

EC50 [1] | Ki [2] | Compound
630 nM | 0.14 nM | c1cc(-c2nc(N3CCC4(CC3)CCN(C3CCOC3)C4)c3ccncc3n2)ccn1 (racemic) [Compound 111, 2-(pyridin-4-yl)-4-(2-(tetrahydrofuran-3-yl)-2,8-diazaspiro[4.5]decan-8-yl)pyrido[3,4-d]pyrimidine]
490 nM | 0.13 nM | FCC1CC2(CCN(c3nc(-c4ccncc4)nc4cnccc34)CC2)CN1 (racemic) [Example 216, 4-(3-(fluoromethyl)-2,8-diazaspiro[4.5]decan-8-yl)-2-(pyridin-4-yl)pyrido[3,4-d]pyrimidine]
740 nM | 0.58 nM | C[C@H](CO)N1CCC2(CCN(c3nc(-c4ccncc4)nc4cnccc34)CC2)C1 (single isomer, unassigned) [Compound 103]
450 nM | 0.53 nM | C[C@@H](CO)N1CCC2(CCN(c3nc(-c4ccncc4)nc4cnccc34)CC2)C1 (single isomer, unassigned) [Compound 104]
690 nM | 0.086 nM | Cc1n[nH]cc1-c1nc(N2CCC3(CCN(C[C@H](C)O)C3)CC2)c2ccncc2n1 (single isomer, unassigned) [Compound 144]
570 nM | 0.45 nM | O[C@H]1CC[C@@H](N2CCC3(CCN(c4nc(-c5ccncc5)nc5cnccc45)CC3)C2)C1 (single isomer, unassigned) [Compound 169]
380 nM | 0.29 nM | O[C@@H]1CC[C@H](N2CCC3(CCN(c4nc(-c5ccncc5)nc5cnccc45)CC3)C2)C1 (single isomer, unassigned) [Compound 170]
740 nM | 0.1 nM | O[C@@H]1CC[C@H]1N1CCC2(CCN(c3nc(-c4ccncc4)nc4cnccc34)CC2)C1 (single isomer, unassigned) [Compound 179]
130 nM |  | COc1cncc2nc(-c3ccncc3)nc(N3CCC4(CCN(C)C4)CC3)c12 [Compound 252, 5-Methoxy-4-(2-methyl-2,8-diazaspiro[4.5]decan-8-yl)-2-(pyridin-4-yl)pyrido[3,4-d]pyrimidine formate]
